# Measurements: ChEMBL document CHEMBL3822367, “Use of Photosensitizers in Semisolid Formulations for Microbial Photodynamic Inactivation” (2016)
# Key:
# Type in all cases: functional
# Staphylococcus aureus [1] = assay: Antibacterial activity against methicillin-resistant Staphylococcus aureus 180 assessed as planktonic cell killing at 50 ug/ml after 15 mins followed by irradiation with paterson lamp at 100 J/cm'2 by serial ten fold dilution method
# Burkholderia cepacia = assay: Antibacterial activity against Burkholderia cepacia assessed as cell killing at 250 ug/ml after 15 mins followed by irradiation with paterson lamp at 100 J/cm'2 by serial ten fold dilution method
# Pseudomonas aeruginosa [2] = assay: Antibacterial activity against Pseudomonas aeruginosa ATCC 9027 assessed as planktonic cell killing using laser illumination at 15.5 J/cm'2
# Pseudomonas aeruginosa [3] = assay: Antibiofilm activity against Pseudomonas aeruginosa ATCC 9027 assessed as decrease in cell viability using laser illumination at 13.2 J
# Staphylococcus aureus [4] = assay: Antibacterial activity against methicillin-resistant Staphylococcus aureus 180 assessed as planktonic cell killing at 5 ug/ml after 15 mins followed by irradiation with paterson lamp at 100 J/cm'2 by serial ten fold dilution method
# Staphylococcus aureus [5] = assay: Antibacterial activity against Staphylococcus aureus SH1000 in stationary phase assessed as reduction in cell viability at 4 times MIC after 2 hrs by time kill kinetic assay relative to control
# Trichophyton rubrum = assay: Antifungal activity against Trichophyton rubrum infected in mouse assessed as reduction in fungal burden using light source at 42 J/cm'2 for 10 mins for 7 days; set-up: scale not given: the % may be the effect or the level left
# Candida albicans [6] = assay: Antimicrobial activity against Candida albicans ATCC-MYA-273 assessed as reduction in planktonic cell viability at 0.5 uM irradiated with blue light at 12 J/cm'2 for 15 mins by ten fold serial dilution method
# Staphylococcus aureus [7] = assay: Antibiofilm activity against Staphylococcus aureus SH1000 after 24 hrs by plate count method
# Candida albicans [8] = assay: Antibiofilm activity against Candida albicans ATCC-MYA-273 assessed as cell killing at 1 uM irradiated with blue light at 48 J/cm'2 for 4 hrs by microplate reader method
# Staphylococcus aureus [9] = assay: Antibiofilm activity against Staphylococcus aureus SH1000 assessed as inhibition of planktonic bacterial growth after 24 hrs by turbidity method; conditions: SH1000, 24 h
# Staphylococcus aureus [10] = assay: Antibacterial activity against methicillin-resistant Staphylococcus aureus ATCC BAA-44 infected in porcine stratum corneum assessed as reduction in viable cells at 10 uM preincubated for 1 hr with bacteria prior to application of bacteria on skin incubated for 5 to 240 mins followed by irradiation with blue light
compound,measurement,setting,value
CN(C)c1ccc2nc3ccc(N(C)C)cc3[s+]c2c1.[Cl-] [METHYLENE BLUE ANHYDROUS],Activity,Staphylococcus aureus [1],100%
same,Activity,Burkholderia cepacia,100%
same,Activity,Pseudomonas aeruginosa [2],100%
same,Activity,Pseudomonas aeruginosa [3],>99.999%
C[n+]1ccc(-c2c3nc(c(-c4cc[n+](C)cc4)c4ccc([nH]4)c(-c4cc[n+](C)cc4)c4nc(c(-c5cc[n+](C)cc5)c5ccc2[nH]5)C=C4)C=C3)cc1.Cc1ccc(S(=O)(=O)[O-])cc1.Cc1ccc(S(=O)(=O)[O-])cc1.Cc1ccc(S(=O)(=O)[O-])cc1.Cc1ccc(S(=O)(=O)[O-])cc1,Activity,Staphylococcus aureus [4],100%
same,Activity,Burkholderia cepacia,99.9%
Cetyltrimethylammonium bromide,Activity (deltalog10CFU/ml),Staphylococcus aureus [5],3
Cc1cc2nc3ccc(N(C)C)cc3[s+]c2cc1N.[Cl-] [TOLONIUM CHLORIDE],Activity,Trichophyton rubrum,87%
N=C(NCCCCCCNC(=N)NC(=N)Nc1ccc(Cl)cc1)NC(=N)Nc1ccc(Cl)cc1 [CHLORHEXIDINE],Activity,Staphylococcus aureus [5],3 deltalog10CFU/ml
C[N+](C)(C)CCCOc1ccc(-c2c3nc(cc4ccc([nH]4)c(-c4ccc(OCCC[N+](C)(C)C)cc4)c4nc(cc5ccc2[nH]5)C=C4)C=C3)cc1.[Cl-].[Cl-] [EXEPORFINIUM CHLORIDE],Activity,Candida albicans [6],6 deltalog10CFU/ml
same,MBEC,Staphylococcus aureus [7],2 mg/L
same,Activity,Candida albicans [8],5 deltalog10CFU/ml
same,MIC,Staphylococcus aureus [9],1 µg/mL
same,Activity,Staphylococcus aureus [10],3.6 deltalog10CFU/ml
same,Activity,Staphylococcus aureus [5],>=5 deltalog10CFU/ml
C[N+](C)(C)CCCOc1cccc(-c2c3nc(cc4ccc([nH]4)c(-c4cccc(OCCC[N+](C)(C)C)c4)c4nc(cc5ccc2[nH]5)C=C4)C=C3)c1.[Cl-].[Cl-],MBEC,Staphylococcus aureus [7],2 mg/L
same,MIC,Staphylococcus aureus [9],1 µg/mL
same,Activity,Staphylococcus aureus [5],>=5 deltalog10CFU/ml
